Each structure is given as a SMILES string.

Test [1] concerns the target T1, Hyal1 (Homo sapiens, UniProt Q12794).
T1 sequence (Q12794 22-435): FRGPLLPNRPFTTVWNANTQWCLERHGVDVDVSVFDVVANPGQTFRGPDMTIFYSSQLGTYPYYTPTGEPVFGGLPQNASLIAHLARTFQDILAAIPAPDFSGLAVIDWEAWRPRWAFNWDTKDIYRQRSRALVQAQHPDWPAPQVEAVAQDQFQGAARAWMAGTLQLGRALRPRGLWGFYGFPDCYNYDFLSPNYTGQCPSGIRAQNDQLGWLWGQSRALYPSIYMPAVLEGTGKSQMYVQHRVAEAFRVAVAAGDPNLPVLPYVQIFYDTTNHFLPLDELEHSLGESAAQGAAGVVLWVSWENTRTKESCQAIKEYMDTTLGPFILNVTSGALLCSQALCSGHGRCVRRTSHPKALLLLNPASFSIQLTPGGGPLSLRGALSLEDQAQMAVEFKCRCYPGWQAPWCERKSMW
Nature of the test: Stains-all HA degradation assay with surface-displayed Hyal1 on E. coli cells, pH […]. Type of test: cell-based.

Test [2] concerns the target T1, Hyal1. Nature of the test: Stains-all HA degradation assay with surface-displayed Hyal1 on E. coli cells, pH […] (incomplete curve; assay impaired beyond […]). Type of test: cell-based.

Broadly, the IC50 is the concentration needed to halve the response being measured. The low end stands for higher potency, the high end for lower potency. Regarding `CCC(=O)O[C@H]1CC[C@H]2[C@@H]3CCC4=CC(=O)CC[C@]4(C)[C@H]3CC[C@]12C` [testosterone propionate], the IC50 against Hyal1 [1] turned out to be 124 ± 1.1 µM. For `O=C(/C=C/c1ccc(O)c(O)c1)O[C@@H](C(=O)O)[C@@H](OC(=O)/C=C/c1ccc(O)c(O)c1)C(=O)O` [chicoric acid], it took 171 µM to reach half-maximal inhibition at Hyal1 [2] (IC50).

For the origin of these results see article PMC7243119, “Improved Surface Display of Human Hyal1 and Identification of Testosterone Propionate and Chicoric Acid as New Inhibitors” (Pharmaceuticals, 2020).
